Reference: patent US11053234B2 (GlaxoSmithKline Intellectual Property Development Limited, priority 2016, dated 2021)

Biological target: T1, haematopoietic prostaglandin D synthase (H-PGDS) (Homo sapiens, UniProt O60760)
T1 construct: Full length human H-PGDS cDNA (Invitrogen Ultimate ORF 10H13026) was amplified by PCR; 6-His (N); TEV protease cleavage site (N); made in house; host or cells: E. coli BL21 (DE3*), vector pET22b+
Assay: H-PGDS RapidFire high throughput mass spectrometry assay (conversion of PGH2 to PGD2)
Format: biochemical
Conditions: 10 nM H-PGDS, PGH2 formed in situ by COX-2 from arachidonic acid; read-out: Potency Range (mean pIC50) (converted)
Method: H-PGDS RapidFire™ High Throughput Mass Spectrometry Assay
The H-PGDS RapidFire™ mass spectrometric assay monitors conversion of prostaglandin H2 (PGH2) to prostaglandin D2 (PGD2) by haematopoietic prostaglandin D synthase (H-PGDS). In the assay format described here, the substrate (PGH2) is formed in situ by the action of cyclooxygenase-2 on arachidonic acid. This first step is set up to be fast, and generates a burst of PGH2 at ˜10 μM. The PGH2 is then further converted to PGD2 by the H-PGDS enzyme. […] Plates are then read on the RapidFire™ high throughput solid phase extraction system (Agilent) which incorporates a solid phase extraction step coupled to a triple quadrupole mass spectrometer (AB SCIEX). Relative levels of PGD2 and PGF2α, which acts as a surrogate for substrate, are measured and a percent conversion calculated.
Expression and Purification of H-PGDS Protein
Full length human H-PGDS cDNA (Invitrogen Ultimate ORF 10H13026) was amplified by PCR with the addition of a 5′ 6-His tag and TEV protease cleavage site. The PCR product was digested with Ndel and Xhol and ligated into pET22b+ (Merck Novagen®). Expression was carried out in E. coli strain BL21 (DE3*) using auto-induction Overnight Express™ Instant TB medium (Merck Novagen®) supplemented with 1% glycerol. The culture was first grown at 37° C. and the temperature was reduced to 25° C. when OD600 reached 2.0. Cells were harvested by centrifugation after a further 18 hr. 10 g of E. coli cell pellet was suspended to a total volume of 80 mL in lysis buffer (20 mM Tris-Cl pH 7.5, 300 mM NaCl, 20 mM imidazole, 5 mM β-mercaptoethanol, 10% glycerol). 1 mg/mL protease inhibitors (Protease Inhibitor Cocktail Set III, Merck Calbiochem®) and 1 mg/mL lysozyme were added to the cell suspension. The suspension was then sonicated for 5 min (UltraSonic Processor VCX 750, Cole-Parmer Instrument Co.) with a micro probe (50% amplitude, 10 sec on/off) and then centrifuged at 100,000 g for 90 min (at 4° C.). The supernatant was loaded onto a Ni-NTA HiTrap column (5 mL, GE Healthcare, pre-equilibrated in lysis buffer). The column was washed with 10 column volumes of lysis buffer and eluted with lysis buffer containing 500 mM imidazole. The pooled protein peak fractions were concentrated using a 10 kDa centrifugal filter at 3500 g and 4° C. (Amicon Ultra-15 centrifugal filter unit with Ultracel-10 membrane from Millipore). Further purification of the concentrated protein was carried out using gel filtration chromatography on a HiLoad 26/600 Superdex 75 preparative grade column (GE Healthcare Life Sciences) using 50 mM Tris pH 7.5, 50 mM NaCl, 1 mM dithiothreitol, 1 mM MgCl2. Fractions containing the protein were pooled, concentrated as described above, and stored at −80° C.
Expression and Purification of Cyclooxygenase-2 (COX-2) Protein
The full length human COX-2 gene (accession number L15326) was amplified by PCR to generate an EcoRI-HindIII fragment containing an in-frame FLAG tag. This was subcloned into pFastBac 1 (Invitrogen). The COX2 FLAG plasmid was recombined into the baculovirus genome according to the BAC-to-BAC protocol described by Invitrogen. Transfection into Spodoptera frugiperda (Sf9) insect cells was performed using Cellfectin (Invitrogen), according to the manufacturer's protocol. […] Cells were harvested using a continuous feed centrifuge run at 2500 g at a rate of approximately 2 L/min with cooling. The resultant cell slurry was re-centrifuged in pots (2500 g, 20 min, 4° C.) and the cell paste was stored at −80° C. […] The suspension was sonicated in 500 mL batches for 8×5 seconds at 10 u amplitude with the medium tip of an MSE probe sonicator and subsequently incubated at 4° C. for 90 min with gentle stirring. The lysate was centrifuged at 12000 rpm for 45 min at 4° C. in a Sorvall SLA1500 rotor. The supernatant (1400 mL) was added to 420 mL of 20 mM Tris-Cl pH 7.4, 150 mM NaCl, 0.1 mM EDTA to reduce the concentration of n-octyl-6-D-glucopyranoside to 1% w/v.

T1 sequence (O60760 whole entry): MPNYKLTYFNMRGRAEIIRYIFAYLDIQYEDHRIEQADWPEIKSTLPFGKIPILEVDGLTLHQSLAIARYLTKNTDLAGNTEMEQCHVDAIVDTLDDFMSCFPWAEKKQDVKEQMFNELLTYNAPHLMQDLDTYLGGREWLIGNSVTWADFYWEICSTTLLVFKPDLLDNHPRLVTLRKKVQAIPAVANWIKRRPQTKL

Row | Structure (SMILES) | IC50
1 | O=C(NC1CN(c2ccccn2)C1)[C@H]1C[C@H](Oc2cccc3scnc23)C1 [Example 81, (trans)-3-(Benzo[d]thiazol-4-yloxy)-N-(1-(pyridin-2-yl)azetidin-3-yl)cyclobutanecarboxamide] | 0.01 to 0.0794 µM
2 | COc1ccc(Cl)cc1O[C@H]1C[C@H](C(=O)N[C@H]2CC[C@H](C(C)(C)O)CC2)C1 [Example 275, (trans)-3-(5-Chloro-2-methoxyphenoxy)-N-((trans)-4-(2-hydroxypropan-2-yl)cyclohexyl)cyclobutanecarboxamide] | 0.01 to 0.0794 µM
3 | CC(C)Nc1nccc(N2CC(NC(=O)[C@H]3C[C@H](Oc4cccc5scnc45)C3)C2)n1 [Example 70, (trans)-3-(Benzo[d]thiazol-4-yloxy)-N-(1-(2-(isopropylamino)pyrimidin-4-yl)azetidin-3-yl)cyclobutanecarboxamide] | 0.1 to 1 µM
4 | COc1ccc(F)cc1O[C@H]1C[C@H](C(=O)NC2CC3(C2)CN(c2cc(C#N)ccn2)C3)C1 [Example 148, (trans)-N-(2-(4-Cyanopyridin-2-yl)-2-azaspiro[3.3]heptan-6-yl)-3-(5-fluoro-2-methoxyphenoxy)cyclobutanecarboxamide] | 0.01 to 0.0794 µM
5 | COCCO[C@H]1CC[C@H](NC(=O)[C@H]2C[C@H](Oc3cccc4scnc34)C2)CC1 [Example 58, (trans)-3-(Benzo[d]thiazol-4-yloxy)-N-((trans)-4-(2-methoxyethoxy)cyclohexyl)cyclobutanecarboxamide] | 0.1 to 1 µM
6 | COc1ccc(Cl)cc1O[C@H]1C[C@H](C(=O)Nc2nc(C(C)=O)cs2)C1 [Example 274, (trans)-N-(4-Acetylthiazol-2-yl)-3-(5-chloro-2-methoxyphenoxy)cyclobutanecarboxamide] | < 0.01 µM
7 | COC(=O)C12CCC(NC(=O)N3CC(Oc4cccc5scnc45)C3)(CC1)CC2 [Example 327, Methyl 4-(3-(benzo[d]thiazol-4-yloxy)azetidine-1-carboxamido)bicyclo[2.2.2]octane-1-carboxylate] | 0.01 to 0.0794 µM
8 | CC(C)(O)CO[C@H]1CC[C@H](NC(=O)N2CC(Oc3cccc4scnc34)C2)CC1 [Example 106, 3-(Benzo[d]thiazol-4-yloxy)-N-((trans)-4-(2-hydroxy-2-methylpropoxy)cyclohexyl)azetidine-1-carboxamide] | 0.01 to 0.0794 µM
9 | O=C(NC1CN(c2ncc(F)cn2)C1)N1CC(Oc2cc(F)cc3scnc23)C1 [Example 135, 3-((6-Fluorobenzo[d]thiazol-4-yl)oxy)-N-(1-(5-fluoropyrimidin-2-yl)azetidin-3-yl)azetidine-1-carboxamide] | 0.01 to 0.0794 µM
10 | Cc1nccc(N2CC(NC(=O)[C@H]3C[C@H](Oc4cc(F)cc5scnc45)C3)C2)n1 [Example 123, (trans)-3-((6-Fluorobenzo[d]thiazol-4-yl)oxy)-N-(1-(2-methylpyrimidin-4-yl)azetidin-3-yl)cyclobutanecarboxamide] | 0.01 to 0.0794 µM
11 | COC(=O)c1coc(N2CC(NC(=O)[C@H]3C[C@H](Oc4cccc5scnc45)C3)C2)n1 [Example 45, Methyl 2-(3-((trans)-3-(benzo[d]thiazol-4-yloxy)cyclobutanecarboxamido)azetidin-1-yl)oxazole-4-carboxylate] | 0.1 to 1 µM
12 | O=C(NC1CCN(c2ncc(F)cn2)CC1)[C@H]1C[C@H](Oc2cccc3scnc23)C1 [Example 41, (trans)-3-(Benzo[d]thiazol-4-yloxy)-N-(1-(5-fluoropyrimidin-2-yl)piperidin-4-yl)cyclobutanecarboxamide] | 0.01 to 0.0794 µM
13 | COc1ccc(F)cc1O[C@H]1C[C@H](C(=O)NC2CN(c3ncc(C#N)s3)C2)C1 [Example 147, (trans)-N-(1-(5-Cyanothiazol-2-yl)azetidin-3-yl)-3-(5-fluoro-2-methoxyphenoxy)cyclobutanecarboxamide] | 0.01 to 0.0794 µM
14 | CC(C)(O)C1CC2(CC(NC(=O)[C@H]3C[C@H](Oc4cccc5scnc45)C3)C2)C1 (mixture of isomers) [Example 83, Racemic (trans)-3-(Benzo[d]thiazol-4-yloxy)-N-(6-(2-hydroxypropan-2-yl)spiro[3.3]heptan-2-yl)cyclobutanecarboxamide] | 0.01 to 0.0794 µM
15 | O=C(NC1CCCCC1)N1CC(Oc2cccc3scnc23)C1 [Example 64, 3-(Benzo[d]thiazol-4-yloxy)-N-cyclohexylazetidine-1-carboxamide] | 0.1 to 1 µM
16 | COc1ccccc1O[C@H]1C[C@H](C(=O)N[C@H]2CC[C@H](C(C)(C)O)CC2)C1 [Example 284, (trans)-N-((trans)-4-(2-hydroxypropan-2-yl)cyclohexyl)-3-(2-methoxyphenoxy)cyclobutanecarboxamide] | 0.01 to 0.0794 µM
17 | CS(=O)(=O)c1ccc(NC(=O)[C@H]2C[C@H](Oc3cccc4scnc34)C2)c(F)c1 [Example 247, (trans)-3-(Benzo[d]thiazol-4-yloxy)-N-(2-fluoro-4-(methylsulfonyl)phenyl)cyclobutanecarboxamide] | 0.01 to 0.0794 µM
18 | O=C(NC1CCS(=O)(=O)C1)[C@H]1C[C@H](Oc2cccc3scnc23)C1 (mixture of isomers) [Example 254, Racemic (trans)-3-(Benzo[d]thiazol-4-yloxy)-N-(1,1-dioxidotetrahydrothiophen-3-yl)cyclobutanecarboxamide] | 0.1 to 1 µM
19 | CN(C)C(=O)c1coc(NC(=O)[C@H]2C[C@H](Oc3cccc4cccnc34)C2)n1 [Example 172, N,N-Dimethyl-2-((trans)-3-(quinolin-8-yloxy)cyclobutanecarboxamido)oxazole-4-carboxamide] | 0.01 to 0.0794 µM
20 | O=C(NCc1ccsc1)[C@H]1C[C@H](Oc2cccc3scnc23)C1 [Example 252] | 0.1 to 1 µM
21 | COc1cc(F)ccc1O[C@H]1C[C@H](C(=O)N[C@H]2CC[C@H](C(C)(C)O)CC2)C1 [Example 277, (trans)-3-(4-Fluoro-2-methoxyphenoxy)-N-((trans)-4-(2-hydroxypropan-2-yl)cyclohexyl)cyclobutanecarboxamide] | 0.1 to 1 µM
22 | CC(C)(O)[C@H]1CC[C@H](NC(=O)[C@H]2C[C@H](Oc3ccccc3OC(F)F)C2)CC1 [Example 278, (trans)-3-(2-(Difluoromethoxy)phenoxy)-N-((trans)-4-(2-hydroxypropan-2-yl)cyclohexyl)cyclobutanecarboxamide] | 0.01 to 0.0794 µM
23 | Cc1nc(NC(=O)[C@H]2C[C@H](Oc3cccc4cccnc34)C2)oc1C [Example 175, (trans)-N-(4,5-Dimethyloxazol-2-yl)-3-(quinolin-8-yloxy)cyclobutanecarboxamide] | 0.01 to 0.0794 µM
24 | CC(N[C@H]1CC[C@H](NC(=O)N2CC(Oc3cccc4scnc34)C2)CC1)C(F)F (mixture of isomers) [Example 40, Racemic 3-(Benzo[d]thiazol-4-yloxy)-N-((trans)-4-((1,1-difluoropropan-2-yl)amino)cyclohexyl)azetidine-1-carboxamide] | 0.01 to 0.0794 µM
25 | CC(C)(O)[C@H]1CC[C@H](NC(=O)[C@H]2C[C@H](Oc3cccc4cncnc34)C2)CC1 [Example 296, (trans)-N-((trans)-4-(2-Hydroxypropan-2-yl)cyclohexyl)-3-(quinazolin-8-yloxy)cyclobutanecarboxamide] | 0.1 to 1 µM
